Experimental data from US7259161B2, “Compositions useful as inhibitors of JAK and other protein kinases” (Vertex Pharmaceuticals Incorporated, priority 2002, dated 2007).

Tests used:
Assay type in all cases: biochemical
JAK3 = target: T1, JAK3 (Homo sapiens, UniProt P52333); test: JAK3 inhibition assay; conditions: 2 μM ATP, ELISA read at 450 nm
T1 sequence (P52333 1-1124): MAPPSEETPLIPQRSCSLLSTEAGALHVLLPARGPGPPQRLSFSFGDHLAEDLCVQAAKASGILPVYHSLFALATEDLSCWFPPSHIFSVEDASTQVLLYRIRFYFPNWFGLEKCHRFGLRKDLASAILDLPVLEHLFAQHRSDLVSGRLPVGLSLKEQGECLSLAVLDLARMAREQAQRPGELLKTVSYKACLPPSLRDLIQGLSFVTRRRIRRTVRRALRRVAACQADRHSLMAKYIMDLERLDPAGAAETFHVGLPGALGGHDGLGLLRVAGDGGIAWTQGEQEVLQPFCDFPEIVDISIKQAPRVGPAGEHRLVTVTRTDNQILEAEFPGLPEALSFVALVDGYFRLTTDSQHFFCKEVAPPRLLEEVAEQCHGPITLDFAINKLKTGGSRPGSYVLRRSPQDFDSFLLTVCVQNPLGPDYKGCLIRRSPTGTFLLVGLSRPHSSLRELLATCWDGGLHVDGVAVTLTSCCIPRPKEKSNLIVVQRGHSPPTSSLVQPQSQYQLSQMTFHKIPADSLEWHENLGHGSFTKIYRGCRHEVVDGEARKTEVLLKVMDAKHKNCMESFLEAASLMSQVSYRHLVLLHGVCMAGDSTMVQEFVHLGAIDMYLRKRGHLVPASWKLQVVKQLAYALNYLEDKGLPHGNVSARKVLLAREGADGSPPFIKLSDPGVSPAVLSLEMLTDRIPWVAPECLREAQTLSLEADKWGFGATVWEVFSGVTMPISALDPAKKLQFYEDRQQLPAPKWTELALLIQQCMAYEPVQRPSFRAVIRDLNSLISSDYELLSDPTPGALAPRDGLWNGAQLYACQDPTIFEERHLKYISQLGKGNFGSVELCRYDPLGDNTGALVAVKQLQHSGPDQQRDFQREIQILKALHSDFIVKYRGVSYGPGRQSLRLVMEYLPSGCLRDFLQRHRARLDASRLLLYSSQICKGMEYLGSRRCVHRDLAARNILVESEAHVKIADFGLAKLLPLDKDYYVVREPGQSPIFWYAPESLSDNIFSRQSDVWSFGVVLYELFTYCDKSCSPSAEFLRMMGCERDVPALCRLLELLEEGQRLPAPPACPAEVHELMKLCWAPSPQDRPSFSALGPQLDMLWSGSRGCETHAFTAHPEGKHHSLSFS
Procedure: Compounds were screened for their ability to inhibit JAK3 according to the method described by G. R. Brown, et al, Bioorg. Med. Chem. Lett. 2000, vol. 10, pp 575–579 in the following manner. Into Maxisorb plates, previously coated at 4° C. with Poly (Glu, Ala, Tyr) 6:3:1 then washed with phosphate buffered saline 0.05% and Tween (PBST), was added 2 μM ATP, 5 MM MgCl2, and a solution of compound in DMSO. The reaction was started with JAK enzyme and the plates incubated for 60 minutes at 30° C. The plates were then washed with PBST, 100 μL HRP-Conjugated 4G10 antibody was added, and the plate incubated for 90 minutes at 30° C. The plate was again washed with PBST, 100 μL TMB solution is added, and the plates were incubated for another 30 minutes at 30° C. Sulfuric acid (100 μL of 1M) was added to stop the reaction and the plate is read at 450 nm to obtain the optical densities for analysis to determine Ki values.

JNK3 = JNK3 (Homo sapiens, UniProt P53779); test: JNK3 inhibition assay (spectrophotometric coupled-enzyme assay); conditions: 10 μM ATP, 10 nM activated JNK3
Chain of JNK3 (P53779 whole entry, species assumed): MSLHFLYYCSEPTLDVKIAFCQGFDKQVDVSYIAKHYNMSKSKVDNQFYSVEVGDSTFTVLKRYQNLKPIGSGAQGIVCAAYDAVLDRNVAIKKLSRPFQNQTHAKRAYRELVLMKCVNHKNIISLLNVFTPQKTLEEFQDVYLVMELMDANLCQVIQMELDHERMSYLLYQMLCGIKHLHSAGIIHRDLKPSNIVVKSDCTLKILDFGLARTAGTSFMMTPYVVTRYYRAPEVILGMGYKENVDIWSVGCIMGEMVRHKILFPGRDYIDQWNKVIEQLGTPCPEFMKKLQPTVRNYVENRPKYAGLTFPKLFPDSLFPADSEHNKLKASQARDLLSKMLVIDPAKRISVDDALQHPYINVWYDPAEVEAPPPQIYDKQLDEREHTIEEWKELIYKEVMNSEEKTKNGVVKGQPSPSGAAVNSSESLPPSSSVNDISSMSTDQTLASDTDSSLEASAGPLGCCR
Procedure: Compounds were assayed for the inhibition of JNK3 by a spectrophotometric coupled-enzyme assay. In this assay, a fixed concentration of activated JNK3 (10 nM) was incubated with various concentrations of a potential inhibitor dissolved in DMSO for 10 minutes at 30° C. in a buffer containing 0.1 M HEPES buffer, pH 7.5, containing 10 mM MgCl2, 2.5 mM phosphoenolpyruvate, 200 μM NADH, 150 μg/mL pyruvate kinase, 50 μg/mL lactate dehydrogenase, and 200 μM EGF receptor peptide. The EGF receptor peptide is a phosphoryl acceptor in the JNK3-catalyzed kinase reaction. The reaction was initiated by the addition of 10 μM ATP and the assay plate is inserted into the spectrophotometer's assay plate compartment that was maintained at 30° C. The decrease of absorbance at 340 nm was monitored as a function of time. The rate data as a function of inhibitor concentration was fitted to competitive inhibition kinetic model to determine the Ki.

CDK-2/Cyclin A = CDK-2/Cyclin A (Homo sapiens, UniProt P24941); test: CDK2 inhibition assay (coupled enzyme assay); conditions: 100 μM ATP, 25 nM CDK-2/Cyclin A
Procedure: Compounds were screened for their ability to inhibit CDK-2/Cyclin A using a standard coupled enzyme assay (Fox et al (1998) Protein Sci 7, 2249). Reactions were carried out in 100 mM HEPES pH 7.5, 10 mM MgCl2, 25 mM NaCl, 1 mM DTT and 1.5% DMSO. Final substrate concentrations in the assay were 100 μM ATP (Sigma chemicals) and 100 μM peptide (American Peptide, Sunnyvale, Calif.). Assays were carried out at 30° C. and 25 nM CDK-2/Cyclin A. Final concentrations of the components of the coupled enzyme system were 2.5 mM phosphoenolpyruvate, 350 μM NADH, 30 μg/ml pyruvate kinase and 10 μg/ml lactate dehydrogenase.
An assay stock buffer solution was prepared containing all of the reagents listed above, with the exception of CDK-2/Cyclin A, DTT and the test compound of interest. 56 μl of the test reaction was placed in a 384 well plate followed by addition of 1 μl of 2 mM DMSO stock containing the test compound (final compound concentration 30 μM). The plate was preincubated for ˜10 minutes at 30° C. and the reaction initiated by addition of 10 μl of enzyme (final concentration 25 nM). Rates of reaction were obtained using a BioRad Ultramark plate reader (Hercules, Calif.) over a 5 minute read time at 30° C. Compounds showing >50% inhibition versus standard wells containing DMSO, but no compound, were titrated and IC50's determined using a similar protocol.

| Compound | Ki (JAK3) | Ki (JNK3) | Ki (CDK-2/Cyclin A) |
| --- | --- | --- | --- |
| O=C1COc2ccc(-c3ccnc(Nc4cccc(Cl)c4)n3)cc2N1Cc1ccccn1 [IVa-56] | < 5 µM | – | – |
| O=C1COc2ccc(-c3ccnc(Nc4cccc(Oc5ccccc5)c4)n3)cc2N1Cc1ccccn1 [IVa-60] | < 5 µM | – | – |
| O=C1COc2ccc(-c3ccnc(Nc4cccc(F)c4)n3)cc2N1CCN1CCOCC1 [IVa-30] | < 5 µM | – | – |
| NS(=O)(=O)c1cccc(Nc2nccc(-c3ccc4c(c3)NC(=O)CO4)n2)c1 [IVa-21] | < 1 µM | – | – |
| O=C1COc2ccc(-c3ccnc(Nc4cccc(O)c4)n3)cc2N1CCN1CCOCC1 [IVa-32] | < 5 µM | – | – |
| COC(=O)c1cccc(Nc2nccc(-c3ccc4c(c3)N(Cc3ccccn3)C(=O)CO4)n2)c1 [IVa-58] | < 5 µM | – | – |
| COc1cccc(Nc2nccc(-c3ccc4c(c3)N(Cc3ccccn3)C(=O)CO4)n2)c1 [IVa-57] | < 1 µM | – | – |
| CN1C(=O)COc2ccc(-c3ccnc(Nc4cccc(S(N)(=O)=O)c4)n3)cc21 [IVa-22] | < 1 µM | < 1 µM | < 1 µM |
| CN1C(=O)COc2ccc(-c3ccnc(Nc4cccc(C(N)=O)c4)n3)cc21 [IVa-25] | < 1 µM | – | – |
| Cc1cccc(Nc2nccc(-c3ccc4c(c3)N(C)C(=O)CO4)n2)c1 [IVa-3] | < 1 µM | < 1 µM | – |
| Cc1ccccc1Nc1nccc(-c2ccc3c(c2)NC(=O)CO3)n1 [IVa-15] | < 1 µM | – | – |
| COc1cccc(Nc2nccc(-c3ccc4c(c3)N(CCN3CCOCC3)C(=O)CO4)n2)c1 [IVa-36] | < 5 µM | – | – |
| N#Cc1cccc(Nc2nccc(-c3ccc4c(c3)N(Cc3cccnc3)C(=O)CO4)n2)c1 [IVa-47] | < 5 µM | – | – |
| O=C1COc2ccc(-c3ccnc(Nc4cccc(F)c4)n3)cc2N1 [IVa-10] | < 5 µM | – | – |
| NS(=O)(=O)c1cccc(Nc2nccc(-c3ccc4c(c3)N(Cc3ccncc3)C(=O)CO4)n2)c1 [IVa-70] | < 5 µM | – | – |
| O=C1COc2ccc(-c3ccnc(Nc4cccc(-c5ccccc5)c4)n3)cc2N1Cc1cccnc1 [IVa-48] | < 5 µM | – | – |
| O=C1COc2ccc(-c3ccnc(Nc4ccc(Cl)cc4)n3)cc2N1 [IVa-13] | < 5 µM | – | – |
| NS(=O)(=O)c1ccc(Nc2nccc(-c3ccc4c(c3)N(CCN3CCOCC3)C(=O)CO4)n2)cc1 [IVa-39] | < 5 µM | – | – |
| O=C1COc2ccc(-c3ccnc(Nc4ccccc4)n3)cc2N1Cc1cccnc1 [IVa-41] | < 5 µM | – | – |

Results, then the compound that gave them:

| Ki (JAK3) | Ki (JNK3) | Ki (CDK-2/Cyclin A) | Compound |
| --- | --- | --- | --- |
| < 1 µM | – | – | NS(=O)(=O)c1ccc(Nc2nccc(-c3ccc4c(c3)N(Cc3cccnc3)C(=O)CO4)n2)cc1 [IVa-51] |
| < 5 µM | – | – | O=C1COc2ccc(-c3ccnc(Nc4cccc(-c5ccccc5)c4)n3)cc2N1Cc1ccccn1 [IVa-59] |
| < 5 µM | < 1 µM | – | COc1ccc(Nc2nccc(-c3ccc4c(c3)N(C)C(=O)CO4)n2)cc1 [IVa-5] |
| < 5 µM | – | – | NS(=O)(=O)c1cccc(Nc2nccc(-c3ccc4c(c3)N(Cc3cccnc3)C(=O)CO4)n2)c1 [IVa-50] |
| < 1 µM | – | – | O=C1COc2ccc(-c3ccnc(Nc4cccc(O)c4)n3)cc2N1Cc1cccnc1 [IVa-44] |
| < 5 µM | – | – | O=C1COc2ccc(-c3ccnc(Nc4cccc(Cl)c4)n3)cc2N1Cc1cccnc1 [IVa-43] |
| < 5 µM | – | – | O=C1COc2ccc(-c3ccnc(Nc4cccc(Cl)c4)n3)cc2N1Cc1ccncc1 [IVa-66] |
| < 1 µM | – | – | COc1cccc(Nc2nccc(-c3ccc4c(c3)N(C)C(=O)CO4)n2)c1 [IVa-28] |
| < 1 µM | – | – | NS(=O)(=O)c1ccc(Nc2nccc(-c3ccc4c(c3)N(Cc3ccncc3)C(=O)CO4)n2)cc1 [IVa-71] |
| < 5 µM | – | – | Cc1cc(C)cc(Nc2nccc(-c3ccc4c(c3)N(Cc3cccnc3)C(=O)CO4)n2)c1 [IVa-52] |
| < 1 µM | – | – | NC(=O)c1cccc(Nc2nccc(-c3ccc4c(c3)N(Cc3cccnc3)C(=O)CO4)n2)c1 [IVa-53] |
| < 1 µM | – | – | Cc1cc(C)cc(Nc2nccc(-c3ccc4c(c3)N(C)C(=O)CO4)n2)c1 [IVa-6] |
| < 5 µM | – | – | O=C1COc2ccc(-c3ccnc(Nc4ccc(F)cc4)n3)cc2N1 [IVa-11] |
| < 1 µM | < 1 µM | – | CN1C(=O)COc2ccc(-c3ccnc(Nc4ccccc4)n3)cc21 [IVa-1] |
| < 1 µM | – | – | COc1cc(Nc2nccc(-c3ccc4c(c3)N(C)C(=O)CO4)n2)cc(OC)c1 [IVa-7] |
| < 5 µM | – | – | O=C1COc2ccc(-c3ccnc(Nc4ccccc4)n3)cc2N1CCN1CCOCC1 [IVa-29] |
| < 1 µM | – | – | COc1cccc(Nc2nccc(-c3ccc4c(c3)NC(=O)CO4)n2)c1 [IVa-14] |
| < 5 µM | – | – | CN1C(=O)COc2ccc(-c3ccnc(Nc4cccc(C#N)c4)n3)cc21 [IVa-26] |
| < 5 µM | – | – | COc1cccc(Nc2nccc(-c3ccc4c(c3)N(Cc3cccnc3)C(=O)CO4)n2)c1 [IVa-45] |
| < 5 µM | – | – | O=C1COc2ccc(-c3ccnc(Nc4cccc(F)c4)n3)cc2N1Cc1ccccn1 [IVa-55] |
| < 5 µM | – | – | O=C1COc2ccc(-c3ccnc(Nc4cccc(Cl)c4)n3)cc2N1CCN1CCOCC1 [IVa-31] |
| < 5 µM | – | – | COC(=O)c1cccc(Nc2nccc(-c3ccc4c(c3)N(Cc3cccnc3)C(=O)CO4)n2)c1 [IVa-46] |
| < 5 µM | < 1 µM | – | CN1C(=O)COc2ccc(-c3ccnc(Nc4cccc(F)c4)n3)cc21 [IVa-2] |
| < 1 µM | – | – | CN1C(=O)COc2ccc(-c3ccnc(Nc4cccc(O)c4)n3)cc21 [IVa-27] |
| < 5 µM | – | – | Cc1cc(C)cc(Nc2nccc(-c3ccc4c(c3)N(Cc3ccncc3)C(=O)CO4)n2)c1 [IVa-72] |
| < 5 µM | < 1 µM | – | Cc1ccc(Nc2nccc(-c3ccc4c(c3)N(C)C(=O)CO4)n2)cc1 [IVa-4] |
